Experiments:
V79/S [1] = assay: Anti-cancer activity potentiating action, colony formation, V79/S parent cells (A-III); type: cell-based, Chinese hamster; settings: for IC50: Cricetulus griseus
Experimental: (§1) The anti-cancer activity potentiating action of the malate of formula (I) was examined using Chinese hamster cells (sensitive cell line V79/S and ADM-resistant cell line V79/ADM), human hepatoma cells (sensitive cell line PLC/S and colchicin-resistant cell line PLC/Col) and mouse leukemia cells (sensitive cell line L5178Y/S) and aclarubicin-resistant cell line L5178Y/ACR).
(§2) Of these tumor cells, the sensitive cells (400 cells) and the resistant cells (600 cells) were each incubated in 10 ml of Eagle's MEM medium containing 10% bovine serum for 24 hours, and then each of the test drugs indicated in Table 6 was added. Thereafter, the incubation was carried out for 9 days. The concentration (IC50 : micrograms/ml) of the test drug required to inhibit 50% of the colony formation (proliferation) of the tumor cells was calculated.
(§3) (A) Chinese hamster V79 cells
(§4) As anti-cancer agents, there were used adriamycin (ADM), aclarubicin (ACR), actinomycin D (ACD), 5-fluorouracil (5-FU), cytarabin (Ara-C), cisplatin (CDDP), methotrexate (MTX), mitomycin C (MMC), nimustine (ACNU), mitoxantrone, etoposide ([…]), vincristine (VCR), bleomycin (BLM) and peplomycin (PEP). For the sensitive cells, the anti-cancer agents were used in combination with 10 micrograms/ml of the malate of formula (I), and for the resistant cells, the anti-cancer agents were used in combination with the malate of formula (I) 3 micrograms/ml, 5 micrograms/ml, and 10 micrograms/ ml.

V79/ADM [2] = assay: Anti-cancer activity potentiating action, colony formation, V79/ADM resistant cells (A-III); type: cell-based, Chinese hamster; settings: for IC50: Cricetulus griseus
Experimental: as §1, §2, §3, §4

[3] = system: clinically isolated human cancer cells (lung adenocarcinoma, lung squamous cell carcinoma, osteosarcoma, ovarian carcinoma); assay: Anti-tumor activity on clinically isolated human cancer cells, morphological changes (A-I Part 2); type: cell-based
V79/S [4] = assay: Colony formation (proliferation) inhibition, sensitive Chinese hamster cells (A-I Part 1); type: cell-based; settings: V79/S; 9 days; Table 1
Experimental: (§5) Sensitive cell line V79/S and ADM-resistant cell line V79/ADM of the Chinese hamster were used, and sensitive cell line PLC/S and cholchicin-resistant cell line PLC/Col, as human hepatoma cells.
(§6) The sensitive cell lines (400 cells) or the resistant cell lines (600 cells) were each incubated for 24 hours in 10 ml of Eagle's MEM medium containing 10% bovine serum. Each of the drugs indicated in Table 1 below was dissolved in ethanol, and 50 microliters of the resulting solution was added to the medium. The incubation was further carried out for 9 days. The concentration of the drug which inhibits 50% of the colony formation (proliferation) of the tumor cells was calculated.
(§7) V79/S and V79/ADM were tested by using all of the drugs described above, but PLC/S and PLC/Col were tested by using only the malate of formula (I), adriamycin and peplomycin.
(§8) The concentrations (micrograms/ml) required to inhibit 50% of the proliferation of the tumor cells, expressed by IC50, are shown in Table 1.

V79/ADM [5] = assay: Colony formation (proliferation) inhibition, ADM-resistant Chinese hamster cells (A-I Part 1); type: cell-based; settings: V79/ADM; 9 days; Table 1
Experimental: as §5, §6, §7, §8

[6] = system: P388 mouse leukemia cells; assay: Life prolongation of BDF1 mice with P388 leukemia, combination with CPA; type: in vivo, mouse (male BDF1); settings: for Number of surviving animals: 30 days
Experimental: Male BDF1 mice having a body weight of 20±2 g, 6 per group, were used. P388 mouse leukemia cells (one week after transplantation) as tumor cells were washed with 0.9% saline and suspended in saline so that the number of the cells reached 5×10^6 /m. The suspension was intraperitoneally administered to the mice at a rate of 0.2 ml (10^6 cells) per mouse.
Twenty-four hours after the transplantation of tumor cells, the malate of formula (I) and cyclophosphamide ([…]) were successively administered intraperitoneally once to the mice, and the life prolongation rate of the mice in each group was determined.
The malate of formula (I) was used after suspending it and Tween 80 at a ratio of 1:5 to saline, and this suspension was diluted with a solution of Tween 80 in the same concentration. CPA, on the other hand, was used as a solution in saline.
CPA (50 mg/kg and 100 mg/kg) and the malate of formula (I) (10 mg/kg and 20 mg/kg) were administered singly or in combination, and the life prolongation rate was determined.

[7] = V79/S, with compound (I) 10 μg/ml
[8] = V79/ADM, with compound (I) 3 μg/ml
[9] = V79/ADM, with compound (I) 5 μg/ml
[10] = read-out: IC50, anti-cancer agent alone
[11] = read-out: IC50 in combination with compound (I)
[12] = V79/S, alone, Table 6, read-out: IC50, anti-cancer agent alone
[13] = V79/S, with compound (I) 10 μg/ml, read-out: IC50 in combination with compound (I)
[14] = V79/ADM, alone, Table 6, read-out: IC50, anti-cancer agent alone
[15] = V79/ADM, with compound (I) 3 μg/ml, read-out: IC50 in combination with compound (I)

In the case of bleomycin [BLM], the “IC50, anti-cancer agent alone” value (V79/S [1]; V79/S, alone, Table 6) is reported as 2.1 µg/mL, the “IC50 in combination with compound (I)” value (V79/S [1]; [7]) is reported as 0.01 µg/mL and the Potentiation activity (V79/S [1]; [7]) is reported as 202 times. The “IC50, anti-cancer agent alone” value (V79/ADM [2]; V79/ADM, alone, Table 6) was 0.56 µg/mL, the “IC50 in combination with compound (I)” value (V79/ADM [2]; [8]) was 0.0385 µg/mL and the Potentiation activity (V79/ADM [2]; [8]) was 14.5 times. The “Efficacy ratio (rated significant by Fisher's test)” value ([3]; 1.0 μg/ml) was 2/8.

With `[NH2][Pt]([NH2])([Cl])[Cl]` [CDDP, cisplatin] the IC50 (V79/S [4]) was 0.37 µg/mL, the “IC50, anti-cancer agent alone” value (V79/S [1]; V79/S, alone, Table 6) was 0.37 µg/mL and the “IC50 in combination with compound (I)” value (V79/S [1]; [7]) was 0.27 µg/mL. The Potentiation activity (V79/S [1]; [7]) was 1.4 times, the IC50 (V79/ADM [5]) was 0.32 µg/mL and the “IC50, anti-cancer agent alone” value (V79/ADM [2]; V79/ADM, alone, Table 6) was 0.32 µg/mL. The “IC50 in combination with compound (I)” value (V79/ADM [2]; [9]) was 0.13 µg/mL, the Potentiation activity (V79/ADM [2]; [9]) was 2.5 times and the “Efficacy ratio (rated significant by Fisher's test)” value ([3]; 0.5 μg/ml) was 4/8.

Work on `Cc1ncc(CNC(=O)N(CCCl)N=O)c(N)n1` [ACNU, nimustine] yielded an IC50 (V79/S [1]; [10]) of 7.6 µg/mL, an IC50 (V79/S [1]; [11]) of 5.4 µg/mL and a Potentiation activity (V79/S [1]; [7]) of 1.4 times. For the same compound, the IC50 (V79/ADM [2]; [10]) was 10 µg/mL, the IC50 (V79/ADM [2]; [11]) was 3.1 µg/mL and the Potentiation activity (V79/ADM [2]; [9]) was 3.20 times. The “Efficacy ratio (rated significant by Fisher's test)” value ([3]; 2.0 μg/ml) was 3/8.

For `O=P1(N(CCCl)CCCl)NCCCO1` (stereo not shown) [CPA, cyclophosphamide], the “MST (medium survival time)” value ([6]; CPA 50 mg/kg i.p.) was 20.3, the T/C vs control ([6]; CPA 50 mg/kg i.p.) was 201% and the “T/C vs CPA alone” value ([6]; CPA 50 mg/kg i.p. (reference group)) was 100%. The “Number of surviving animals” value ([6]; CPA 50 mg/kg i.p.) was 0/6, the “MST (medium survival time)” value ([6]; CPA 100 mg/kg i.p.) was 24.0 and the T/C vs control ([6]; CPA 100 mg/kg i.p.) was 238%. The “T/C vs CPA alone” value ([6]; CPA 100 mg/kg i.p. (reference group)) was 100% and the “Number of surviving animals” value ([6]; CPA 100 mg/kg i.p.) was 1/6.

For `CC[C@]1(O)C[C@@H]2CN(CCc3c([nH]c4ccccc34)[C@@](C(=O)OC)(c3cc4c(cc3OC)N(C)[C@H]3[C@@](O)(C(N)=O)[C@H](O)[C@]5(CC)C=CCN6CC[C@]43[C@@H]65)C2)C1` [VDS, vindesine], the “Efficacy ratio (rated significant by Fisher's test)” value ([3]; 0.5 μg/ml) was 0/8.

Compound `COc1cc([C@@H]2c3cc4c(cc3[C@@H](O[C@@H]3O[C@@H]5CO[C@@H](C)O[C@H]5[C@H](O)[C@H]3O)[C@H]3COC(=O)[C@H]23)OCO4)cc(OC)c1O` [Etoposide, etoposide] has an IC50 (V79/S [1]; [12]) of 0.27 µg/mL, an IC50 (V79/S [1]; [13]) of 0.098 µg/mL and a Potentiation activity (V79/S [1]; [7]) of 2.8 times. The IC50 (V79/ADM [2]; [14]) was > 20 µg/mL, the IC50 (V79/ADM [2]; [15]) was 7.4 µg/mL and the Potentiation activity (V79/ADM [2]; [8]) was 2.7 times.

With `COC(COC(N)=O)C1=C(N2CC2)C(=O)C(C)=C(N2CC2)C1=O` (stereo not shown) [CQ, carboquone] the “Efficacy ratio (rated significant by Fisher's test)” value ([3]; 0.1 μg/ml) was 1/8.

`CC[C@]1(O)C[C@H]2CN(CCc3c([nH]c4ccccc34)[C@@](C(=O)OC)(c3cc4c(cc3OC)N(C=O)[C@H]3[C@@](O)(C(=O)OC)[C@H](OC(C)=O)[C@]5(CC)C=CCN6CC[C@]43[C@@H]65)C2)C1` [VCR, vincristine] showed an IC50 (V79/S [1]; [12]) of 0.0271 µg/mL, an IC50 (V79/S [1]; [13]) of 0.00325 µg/mL and a Potentiation activity (V79/S [1]; [7]) of 8.3 times. It also gave an IC50 (V79/ADM [2]; [14]) of 0.73 µg/mL, an IC50 (V79/ADM [2]; [15]) of 0.0351 µg/mL and a Potentiation activity (V79/ADM [2]; [8]) of 20.8 times. The “Efficacy ratio (rated significant by Fisher's test)” value ([3]; 0.1 μg/ml) was 2/8.
